Laboratory results as given in ChEMBL document CHEMBL4257506, “Design, synthesis and antimicrobial activity of usnic acid derivatives” (2018).

Columns and labels:
Type in all cases: functional
Aspergillus niger = experiment: Fungicidal activity against Aspergillus niger by microdilution method
Aspergillus versicolor = experiment: Fungicidal activity against Aspergillus versicolor ATCC 11730 by microdilution method
Penicillium cyclopium = experiment: Fungicidal activity against Penicillium verrucosum var. cyclopium food isolate by microdilution method
Trichoderma viride = experiment: Fungicidal activity against Trichoderma viride IAM 5061 by microdilution method
Aspergillus fumigatus = experiment: Fungicidal activity against Aspergillus fumigatus ATCC 1022 by microdilution method
Talaromyces funiculosus = experiment: Fungicidal activity against Penicillium funiculosum ATCC 36839 by microdilution method
Penicillium ochrochloron = experiment: Fungicidal activity against Penicillium ochrochloron ATCC 9112 by microdilution method
Aspergillus ochraceus = experiment: Fungicidal activity against Aspergillus ochraceus by microdilution method

SMILES	MFC (Aspergillus niger) [×10⁻² mmol/ml]	MFC (Aspergillus versicolor) [×10⁻² mmol/ml]	MFC (Penicillium cyclopium) [×10⁻² mmol/ml]	MFC (Trichoderma viride) [×10⁻² mmol/ml]	MFC (Aspergillus fumigatus) [×10⁻² mmol/ml]	MFC (Talaromyces funiculosus) [×10⁻² mmol/ml]	MFC (Penicillium ochrochloron) [×10⁻² mmol/ml]	MFC (Aspergillus ochraceus) [×10⁻² mmol/ml]
CC(=O)C1=C(O)C=C2Oc3c(C(C)=O)c(O)c(C)c(O)c3C2(C)C1=O (stereo not given)	8.8	8.8	8.8	4.4	69.8	8.8	8.8	4.4
CC(=O)NCCN/C(C)=C1\C(=O)C=C2Oc3c(C(C)=O)c(O)c(C)c(O)c3[C@@]2(C)C1=O	15.05	7.53	15.05	15.05	7.53	7.53	7.53	15.05
CC(=O)c1c(O)c(C)c(O)c2c1OC1=CC(=O)/C(=C(/C)NCCc3ccc(O)c(O)c3)C(=O)[C@@]12C	8.34	4.17	4.17	2.09	4.17	4.17	4.17	2.09
CC(=O)c1c(O)c(C)c(O)c2c1OC1=CC(=O)/C(=C(/C)NCc3nc(N)n[nH]3)C(=O)[C@@]12C	4.41	4.41	8.82	8.82	4.41	4.41	4.41	8.82
CC(=O)c1c(O)c(C)c(O)c2c1OC1=CC(=O)/C(=C(/C)NCc3noc(C4CCC(=O)N4)n3)C(=O)[C@@]12C (stereo not given in full)	3.54	3.54	3.54	1.77	3.54	1.77	1.77	3.54
CC(=O)c1c(O)c(C)c(O)c2c1OC1=CC(=O)/C(=C(/C)NCCc3nc(C)no3)C(=O)[C@@]12C	3.73	3.73	3.73	1.87	3.73	3.73	3.73	1.87
COc1ccc2nc(NC(=O)CN/C(C)=C3\C(=O)C=C4Oc5c(C(C)=O)c(O)c(C)c(O)c5[C@@]4(C)C3=O)sc2c1	14.95	7.1	14.95	1.77	14.95	14.95	14.95	14.95
CC(=O)c1c(O)c(C)c(O)c2c1OC1=CC(=O)/C(=C(/C)NCC(=O)NC(CO)C(=O)O)C(=O)[C@@]12C (stereo not given in full)	3.69	3.69	3.69	1.84	3.69	3.69	3.69	3.69
CC(=O)c1c(O)c(C)c(O)c2c1OC1=CC(=O)/C(=C(/C)NCCc3nnc(-c4ccccc4O)o3)C(=O)[C@@]12C	6.02	3.01	3.01	1.51	3.01	3.01	3.01	1.51
CC(=O)c1c(O)c(C)c(O)c2c1OC1=CC(=O)/C(=C(/C)NCCn3c(=O)c(O)nc4ccccc43)C(=O)[C@@]12C	3.64	3.64	7.28	1.82	3.64	3.64	3.64	1.82
CC(=O)c1c(O)c(C)c(O)c2c1OC1=CC(=O)/C(=C(/C)NCCS(N)(=O)=O)C(=O)[C@@]12C	7.1	7.1	7.1	3.55	7.1	7.1	7.1	3.55
CC(=O)c1c(O)c(C)c(O)c2c1OC1=CC(=O)/C(=C(/C)NCC(=O)Nc3nccs3)C(=O)[C@@]12C	1.86	3.72	3.72	3.72	3.72	3.72	3.72	1.86
COCCc1noc(CCN/C(C)=C2\C(=O)C=C3Oc4c(C(C)=O)c(O)c(C)c(O)c4[C@@]3(C)C2=O)n1	4.02	4.02	4.02	2.01	4.02	4.02	4.02	2.01
c1ccc(-c2ccc(C(c3ccccc3)n3ccnc3)cc2)cc1 (stereo not given) [BIFONAZOLE]	64	64	48	80	64	80	64	80
CC(=O)N1CCN(c2ccc(OCC3COC(Cn4ccnc4)(c4ccc(Cl)cc4Cl)O3)cc2)CC1 (stereo not given) [KETOCONAZOLE]	95	380	94	570	95	95	380	95
